Measurements as given in patent publication US10858360B2, “Tricyclic gyrase inhibitors” (priority 2011, dated 2020).
Converted amounts (≈) assume the structure as drawn. Read-outs that look alike come from different tables or passages of the source.

Key:
E. coli ATCC 25922 = assay: MIC, E. coli ATCC 25922; format: cell-based; details: for MIC: Escherichia coli, ATCC25922, E. coli
S. aureus ATCC 13709 = assay: MIC, S. aureus ATCC 13709 (Alamar Blue broth microdilution); format: cell-based; details: for MIC: Staphylococcus aureus, ATCC13709, S. aureus
[1] = Alamar Blue read after overnight incubation at 35° C.
[2] = E. coli, Alamar Blue read after overnight incubation at 35° C.
[3] = S. aureus, Alamar Blue read after overnight incubation at 35° C.

SMILES | MIC (E. coli ATCC 25922; [1]) [µg/mL] | MIC (S. aureus ATCC 13709; [1]) [µg/mL] | MIC Ec (E. coli ATCC 25922; [2]) [µg/mL] | MIC Sa (S. aureus ATCC 13709; [3]) [µg/mL] | further results
CNc1cc(F)cc2c1[nH]c1nc(Oc3ccc4c(c3)C(=O)NC4)nc(N3CC4[C@H](C[C@H]4N)C3)c12 (stereo partly drawn) [4.267] | 4 (≈ 8.45 µM) | ≤ 0.5 |  |  | 
CNc1cc(F)cc2c1[nH]c1nc(Oc3cncc(Cl)c3)nc(N3CC4CC3CC4N)c12 (stereo not drawn) [4.276] |  |  | 8 (≈ 17.6 µM) | ≤0.5 | 
CNc1cc(F)cc2c1[nH]c1nc(Oc3cnc(Cl)nc3)nc(N3CC4C(N)CC4(C)C3)c12 (stereo not drawn) [4.379] |  |  | ≤0.5 | ≤0.5 | 
CNc1cc(F)cc2c1[nH]c1nc(Oc3cnc(C)nc3)nc(-c3ccc(F)cc3CN)c12 [4.420] | > 16 | 2 (≈ 4.47 µM) |  |  | 
CNc1cc(F)cc2c1[nH]c1nc(Oc3cnc(C)nc3)nc(N3CC4CCC(CN)C4C3)c12 (stereo not drawn) [4.112] |  |  | 1 (≈ 2.16 µM) | ≤0.5 | 
CNc1cc(F)cc2c1[nH]c1nc(Oc3cncc(F)c3)nc(N3CCC4(C[C@H]4N)C3)c12 (stereo partly drawn) [4.062] | ≤ 0.5 | ≤ 0.5 |  |  | 
CNc1cc(F)cc2c1[nH]c1nc(Oc3cncc(SC)c3)nc(N3CC4C[C@@H](N)C4C3)c12 (stereo partly drawn) [4.355] | ≤ 0.5 | ≤ 0.5 |  |  | 
CNc1cc(F)cc2c1[nH]c1nc(Oc3cnc(C)nc3)nc(-c3cccc(CN)c3F)c12 [4.422] | 16 (≈ 35.8 µM) | 4 (≈ 8.94 µM) |  |  | 
CNc1cccc2c1[nH]c1nc(Oc3cncnc3)nc(N3C[C@H](N)C4(CC4)C3)c12 [3.47] | ≤ 0.5 | ≤ 0.5 |  |  | 
NC1CCN(c2nc(Sc3cnc4nccnc4c3)nc3[nH]c4ccccc4c23)C1 (stereo not drawn) [1.6] | > 64 | 32 (≈ 77.2 µM) |  |  | 
CNc1cc(F)cc2c1[nH]c1nc(Oc3cnc(N4CC(C)(N)C4)nc3)nc(N3CCC4(C[C@@H]4N)C3)c12 (stereo partly drawn) [4.341] |  |  | 1 (≈ 1.98 µM) | ≤0.5 | 
CNc1cc(F)cc2c1[nH]c1nc(Oc3cnc(C)nc3)nc(N3CCCC(N)C3)c12 (stereo not drawn) [4.077] |  |  | ≤0.5 | ≤0.5 | 
CNc1cc(Cl)cc2c1[nH]c1nc(Oc3cnc(N)nc3)nc(N3CC4CC(N)C4C3)c12 (stereo not drawn) [6.16] |  |  |  |  | MIC Ec (E. coli ATCC 25922): 1 µg/mL (≈ 2.21 µM); MIC Sa (S. aureus ATCC 13709): ≤0.5 µg/mL
CNc1cccc2c1[nH]c1nc(Sc3cncnc3)nc(N3CC4C(N)C4C3)c12 (stereo not drawn) [1.43] | 8 (≈ 19.8 µM) | 2 (≈ 4.94 µM) |  |  | 
CNc1cccc2c1[nH]c1nc(Oc3cnc(C)nc3)nc(N3CCC4(CC4N)C3)c12 (stereo not drawn) [3.42] | 2 (≈ 4.8 µM) | ≤ 0.5 |  |  | 
CNc1cc(F)cc2c1[nH]c1nc(Sc3cnc4ccc[n+]([O-])c4c3)nc(N3CC(N)C4(CC4)C3)c12 (stereo not drawn) [1.63] | ≤ 0.5 | ≤ 0.5 |  |  | 
CNc1cc(F)cc2c1[nH]c1nc(Oc3cnc(C(C)(C)O)nc3)nc(N3CC4C[C@@H](N)C4C3)c12 (stereo partly drawn) [4.412] | ≤ 0.5 | ≤ 0.5 |  |  | 
CNc1cc(F)cc2c1[nH]c1nc(Oc3cnc(CO)nc3)nc(N3CC4(CC[C@H]4N)C3)c12 [4.388] | ≤ 0.5 | ≤ 0.5 |  |  | 
CNc1cccc2c1[nH]c1nc(Sc3cnc4ccc[n+]([O-])c4c3)nc(N3CC(C4(N)CC4)C3)c12 [1.33] | 4 (≈ 8.25 µM) | ≤ 0.5 |  |  | 
CNc1cc(F)cc2c1[nH]c1nc(Oc3cncc(-c4nnn(C)n4)c3)nc(N3CC4C(N)C4C3)c12 (stereo not drawn) [4.210] |  |  | 1 (≈ 2.05 µM) | ≤0.5 | 
Nc1cccc2c1[nH]c1nc(Sc3cnc4cccnc4c3)nc(N3CC4C(N)C4C3)c12 (stereo not drawn) [1.9] | > 64 | 64 (≈ 145 µM) |  |  | 
CNc1cc(F)cc2c1[nH]c1nc(Oc3ccnnc3)nc(N3CC(N)C4(CC4)C3)c12 (stereo not drawn) [4.230] |  |  | >16 | 32 (≈ 76.1 µM) | 
CNc1cc(F)cc2c1[nH]c1nc(Oc3cncc(-c4nnnn4C)c3)nc(N3CC4CNC(C4)C3)c12 (stereo not drawn) [4.170] | > 16 | 2 (≈ 3.99 µM) |  |  | 
CNc1cc(F)cc2c1[nH]c1nc(Oc3cnc(C)nc3)nc(N3CC4CC3CC4N)c12 (stereo not drawn) [4.129] |  |  | ≤0.5 | ≤0.5 | 
CNc1cccc2c1[nH]c1nc(Oc3ccc(C(=O)OC)nc3)nc(N3CC4C(N)C4C3)c12 (stereo not drawn) [3.21] | 1 (≈ 2.24 µM) | ≤ 0.5 |  |  | 
Cc1cccc2c1[nH]c1nc(Sc3cnc4nccnc4c3)nc(N3CC4C(N)C4C3)c12 (stereo not drawn) [1.7] | > 32 | 4 (≈ 9.08 µM) |  |  | 
CNc1cc(F)cc2c1[nH]c1nc(Oc3cncnc3)nc(N3CCC4(CCNC4)C3)c12 (stereo not drawn) [4.033] | 4 (≈ 9.21 µM) | ≤ 0.5 |  |  | 

SMILES | MIC (E. coli ATCC 25922; [1]) [µg/mL] | MIC (S. aureus ATCC 13709; [1]) [µg/mL] | MIC Ec (E. coli ATCC 25922; [2]) [µg/mL] | MIC Sa (S. aureus ATCC 13709; [3]) [µg/mL] | further results
CNc1cccc2c1[nH]c1nc(Oc3cnc(N)nc3)nc(Oc3cnc(N)nc3)c12 [3.53] | > 64 | 8 (≈ 19.2 µM) |  |  | 
CNc1cc(F)cc2c1[nH]c1nc(Oc3cnc(C4CC4)nc3)nc(N3CC4C(CN)C4C3)c12 (stereo not drawn) [4.249] | ≤ 0.5 | ≤ 0.5 |  |  | 
CNc1cc(F)cc2c1[nH]c1nc(Oc3cnc(C)nc3)nc(N3CC4(CCC4N)C3)c12 (stereo not drawn) [4.100] |  |  | ≤0.5 | ≤0.5 | 
CNc1cc(F)cc2c1[nH]c1nc(Oc3ccc4nc5n(c(=O)c4c3)CCC5)nc(N3CC4C[C@@H](N)C4C3)c12 (stereo partly drawn) [4.376] | > 16 | > 16 |  |  | 
CNc1cccc2c1[nH]c1nc(Sc3cncc(S(=O)(=O)NC)c3)nc(N3CC4C(N)C4C3)c12 (stereo not drawn) [1.36] | 4 (≈ 8.05 µM) | 2 (≈ 4.03 µM) |  |  | 
CCc1cc(F)cc2c1[nH]c1nc(Oc3cnc(C)nc3)nc(N3CC(N)C4(CC4)C3)c12 (stereo not drawn) [2.3] | 16 (≈ 36.9 µM) | 1 (≈ 2.31 µM) |  |  | 
CNc1cc(F)cc2c1[nH]c1nc(Oc3cncc(C#N)c3)nc(N3CC4C(N)C4C3)c12 (stereo not drawn) [4.050] | ≤ 0.5 | ≤ 0.5 |  |  | 
CNc1cc(F)cc2c1[nH]c1nc(Oc3cnc(N4CCOCC4)nc3)nc(N3CCC(N)C3)c12 (stereo not drawn) [4.212] |  |  | ≤0.5 | ≤0.5 | 
CNc1cc(F)cc2c1[nH]c1nc(Oc3cncnc3)nc(N3CC4CCC(N)C3C4)c12 (stereo not drawn) [4.032] | 2 (≈ 4.6 µM) | ≤ 0.5 |  |  | 
CNc1cc(F)cc2c1[nH]c1nc(Oc3ccc(C4CC4)nc3)nc(N3CC(N)C4(CC4)C3)c12 (stereo not drawn) [4.347] |  |  | 1 (≈ 2.18 µM) | ≤0.5 | 
CNc1cccc2c1[nH]c1nc(Sc3cnc4ccc[n+]([O-])c4c3)nc(N3CCC[C@@H](N)C3)c12 [1.34] | 4 (≈ 8.46 µM) | 1 (≈ 2.12 µM) |  |  | 
CNc1cc(F)cc2c1[nH]c1nc(Oc3cnc(N)nc3)nc(N3CC4C(N)CC4(C)C3)c12 (mixture of isomers) [4.192] |  |  | 4 | ≤0.5 | 
CNc1cc(F)cc2c1[nH]c1nc(Oc3cnc(C)nc3)nc(N3CC(N4CC(N)C4)C3)c12 [4.158] |  |  | 4 (≈ 8.9 µM) | ≤0.5 | 
CNc1cc(F)c(F)c2c1[nH]c1nc(Oc3cnc(CO)nc3)nc(N3C[C@H]4C[C@@H]3C[C@H]4N)c12 [5.14] | ≤ 0.5 | ≤ 0.5 |  |  | 
CNc1cccc2c1[nH]c1nc(Sc3cnc4cccnc4c3)nc(N3C[C@H](N)C[C@H]3C)c12 [1.61] | 64 (≈ 140 µM) | 8 (≈ 17.5 µM) |  |  | 
CCc1cc(F)cc2c1[nH]c1nc(Oc3cncnc3)nc(N3CC4C(N)C4C3)c12 (stereo not drawn) [2.2] | 4 (≈ 9.87 µM) | 2 (≈ 4.93 µM) |  |  | 
CNc1cccc2c1[nH]c1nc(Sc3cnc4cccnc4c3)nc(N3CC4C(N)C4C3)c12 (stereo not drawn) [1.12] | 1 (≈ 2.2 µM) | ≤ 0.5 |  |  | 
CNc1cc(F)c(F)c2c1[nH]c1nc(Oc3cncnc3)nc(N3CC(N)C4(CC4)C3)c12 (stereo not drawn) [5.09] |  |  | ≤0.5 | ≤0.5 | 
CNc1cc(F)c(F)c2c1[nH]c1nc(Oc3cnc(C)nc3)nc(N3CC(N)C3)c12 [5.06] |  |  | ≤0.5 | ≤0.5 | 
CNc1cc(F)cc2c1[nH]c1nc(Oc3cnc4c(c3)ncn4C)nc(N3CC4C[C@@H](N)C4C3)c12 (stereo partly drawn) [4.227] | 1 (≈ 2.11 µM) | ≤ 0.5 |  |  | 
CNc1cc(F)cc2c1[nH]c1nc(Oc3cncc(Br)c3)nc(N3CC4CC(N)C4C3)c12 (stereo not drawn) [4.283] |  |  | ≤0.5 | ≤0.5 | 
CNc1cccc2c1[nH]c1nc(Sc3cnc4cccnc4c3)nc(N3CCC4(CC4N)C3)c12 (stereo not drawn) [1.26] |  |  | 1 (≈ 2.13 µM) | ≤0.5 | 
CNc1cc(F)c(F)c2c1[nH]c1nc(Oc3cnc(C)nc3)nc(N3CC(N)C4(CC4)C3)c12 (stereo not drawn) [5.05] |  |  | ≤0.5 | ≤0.5 | 
CNc1cc(F)cc2c1[nH]c1nc(Oc3cnc(N)nc3)nc(N3CC4CCC(N)C4C3)c12 (stereo not drawn) [4.189] | 2 (≈ 4.45 µM) | ≤ 0.5 |  |  | 
CNc1cc(F)cc2c1[nH]c1nc(Oc3cnc(C)nc3)nc(N3C[C@@H]4CCN[C@@H]4C3)c12 [4.156] | ≤ 0.5 | ≤ 0.5 |  |  | 
CNc1cc(F)c(F)c2c1[nH]c1nc(Oc3cnc4c(c3)ncn4C3CC3)nc(N3C[C@H]4C[C@@H]3C[C@H]4N)c12 [5.15] | 1 (≈ 1.93 µM) | ≤ 0.5 |  |  | 
CNc1cccc2c1[nH]c1nc(Oc3ccc[n+]([O-])c3)nc(Oc3cnc(C)nc3)c12 [3.39] | 64 (≈ 154 µM) | 2 (≈ 4.81 µM) |  |  | 
